In the assay the test system is recombinant NL4-3 virus (Renilla luciferase in nef, Gag P373S; NLRluc) in MT-2 cells. Briefly: whole plant or invertebrate. In kind it is cell-based, HIV. The note with it: Renilla, NL43, luciferase activity in cells infected for 4-5 days with NLRluc recombinants, serial dilutions of inhibitor; class symbols (key in Table 1); read-out: EC50. In a few lines:
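Luciferase signal is the read-out: after 4-5 days of infection in the presence of serially diluted compound, MT-2 cells are lysed with a premix of lysis buffer, luciferase reagent and Stop & Glo substrate, and luminescence is read immediately.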

Some results are limits rather than exact numbers.

In the case of `C=C(C)[C@@H]1CC[C@]2(NCCNc3ccccc3)CC[C@]3(C)[C@H](CC[C@@H]4[C@@]5(C)CC=C(c6ccc(C(=O)O)cc6)C(C)(C)[C@@H]5CC[C@]43C)[C@@H]12` [Example 192, 4-((1R,3aS,5aR,5bR,7aR,11aS,11bR,13aR,13bR)-5a,5b,8,8,11a-pentamethyl-3a-(2-(phenylamino)ethylamino)-1-(prop-1-en-2-yl)-2,3,3a,4,5,5a,5b,6,7,7a,8,11,11a,11b,12,13,13a,13b-octadecahydro-1H-cyclopenta[a]chrysen-9-yl)benzoic acid], the EC50 (usually the concentration that produces a half-maximal response) was below 0.1 µM.
As to `C=C(C)[C@@H]1CC[C@]2(NC(=O)NCCCN3CCS(=O)(=O)CC3)CC[C@]3(C)[C@H](CC[C@@H]4[C@@]5(C)CC=C(c6ccc(C(=O)O)cc6)C(C)(C)[C@@H]5CC[C@]43C)[C@@H]12` [Example 22, 4-((1R,3aS,5aR,5bR,7aR,11aS,11bR,13aR,13bR)-3a-(((3-(1,1-dioxido-4-thiomorpholinyl)propyl)carbamoyl)amino)-1-isopropenyl-5a,5b,8,8,11a-pentamethyl-2,3,3a,4,5,5a,5b,6,7,7a,8,11,11a,11b,12,13,13a,13b-octadecahydro-1H-cyclopenta[a]chrysen-9-yl)benzoic acid], the EC50 was below 0.1 µM.
For the compound `CNC(=O)CN[C@]12CC[C@@H](C(C)C)[C@@H]1[C@H]1CC[C@@H]3[C@@]4(C)CC[C@H](c5ccc(C(=O)O)cc5)C(C)(C)[C@@H]4CC[C@@]3(C)[C@]1(C)CC2` [Example B10, 4-((1S,3aS,5aR,5bR,7aS,9S,11aS,11bR,13aR,13bR)-1-isopropyl-5a,5b,8,8,11a-pentamethyl-3a-((2-(methylamino)-2-oxoethyl)amino)icosahydro-1H-cyclopenta[a]chrysen-9-yl)benzoic acid], the half-maximal effective concentration (EC50) is below 0.1 µM.
Then `C=C(C)[C@@H]1CC[C@]2(NCCN3CCN(C(=O)CC4CCCCC4)CC3)CC[C@]3(C)[C@H](CC[C@@H]4[C@@]5(C)CC=C(c6ccc(C(=O)O)cc6)C(C)(C)[C@@H]5CC[C@]43C)[C@@H]12` [Example B57, 4-((1R,3aS,5aR,5bR,7aR,11aS,11bR,13aR,13bR)-3a-((2-(4-(2-cyclohexylacetyl)piperazin-1-yl)ethyl)amino)-5a,5b,8,8,11a-pentamethyl-1-(prop-1-en-2-yl)-2,3,3a,4,5,5a,5b,6,7,7a,8,11,11a,11b,12,13,13a,13b-octadecahydro-1H-cyclopenta[a]chrysen-9-yl)benzoic acid], with below 0.1 µM; and `C=C(C)[C@@H]1CC[C@]2(NCCN3CCN(S(=O)(=O)Cc4ccccc4)CC3)CC[C@]3(C)[C@H](CC[C@@H]4[C@@]5(C)CC=C(c6ccc(C(=O)O)cc6)C(C)(C)[C@@H]5CC[C@]43C)[C@@H]12` [Example B41, 4-((1R,3aS,5aR,5bR,7aR,11aS,11bR,13aR,13bR)-3a-((2-(4-(benzylsulfonyl)piperazin-1-yl)ethyl)amino)-5a,5b,8,8,11a-pentamethyl-1-(prop-1-en-2-yl)-2,3,3a,4,5,5a,5b,6,7,7a,8,11,11a,11b,12,13,13a,13b-octadecahydro-1H-cyclopenta[a]chrysen-9-yl)benzoic acid], with below 0.1 µM; and `C=C(C)[C@@H]1CC[C@]2(NC(=O)CN3C(=O)OC[C@@H]3c3ccccc3)CC[C@]3(C)[C@H](CC[C@@H]4[C@@]5(C)CC=C(c6ccc(C(=O)O)cc6)C(C)(C)[C@@H]5CC[C@]43C)[C@@H]12` [Example 107, 4-((1R,3aS,5aR,5bR,7aR,11aS,11bR,13aR,13bR)-5a,5b,8,8,11a-pentamethyl-3a-(2-((S)-2-oxo-4-phenyloxazolidin-3-yl)acetamido)-1-(prop-1-en-2-yl)-2,3,3a,4,5,5a,5b,6,7,7a,8,11,11a,11b,12,13,13a,13b-octadecahydro-1H-cyclopenta[a]chrysen-9-yl)benzoic acid], with below 0.1 µM.
For the compound `C=C(C)[C@@H]1CC[C@]2(NCCNc3ccc(SC)cn3)CC[C@]3(C)[C@H](CC[C@@H]4[C@@]5(C)CC=C(c6ccc(C(=O)O)cc6)C(C)(C)[C@@H]5CC[C@]43C)[C@@H]12` [Example 196, 4-((1R,3aS,5aR,5bR,7aR,11aS,11bR,13aR,13bR)-5a,5b,8,8,11a-pentamethyl-3a-(2-(5-(methylthio)pyridin-2-ylamino)ethylamino)-1-(prop-1-en-2-yl)-2,3,3a,4,5,5a,5b,6,7,7a,8,11,11a,11b,12,13,13a,13b-octadecahydro-1H-cyclopenta[a]chrysen-9-yl)benzoic acid], the half-maximal effective concentration (EC50) is below 0.1 µM.
Turning to `C=C(C)[C@@H]1CC[C@]2(NC(=O)CCN3CCS(=O)(=O)CC3)CC[C@]3(C)[C@H](CC[C@@H]4[C@@]5(C)CC=C(c6ccc(C(=O)O)cc6)C(C)(C)[C@@H]5CC[C@]43C)[C@@H]12` [Example 81, benzoic acid, 4-[(1R,3aS,5aR,5bR,7aR,11aS,11bR,13aR,13bR)-3a-[[3-(1,1-dioxido-4-thiomorpholinyl)-1-oxopropyl]amino]-2,3,3a,4,5,5a,5b,6,7,7a,8,11,11a,11b,12,13,13a,13b-octadecahydro-5a,5b,8,8,11a-pentamethyl-1-(1-methylethenyl)-1H-cyclopenta[a]chrysen-9-yl]], the EC50 was below 0.1 µM.
On to `C=C(C)[C@@H]1CC[C@]2(NC(=O)C(=O)N(C)C)CC[C@]3(C)[C@H](CC[C@@H]4[C@@]5(C)CC=C(c6ccc(C(=O)O)cc6)C(C)(C)[C@@H]5CC[C@]43C)[C@@H]12` [Example 76, 4-((1R,3aS,5aR,5bR,7aR,11aS,11bR,13aR,13bR)-3a-(2-(dimethylamino)-2-oxoacetamido)-5a,5b,8,8,11a-pentamethyl-1-(prop-1-en-2-yl)-2,3,3a,4,5,5a,5b,6,7,7a,8,11,11a,11b,12,13,13a,13b-octadecahydro-1H-cyclopenta[a]chrysen-9-yl)benzoic acid], for which the EC50 is below 0.1 µM.

The values are drawn from patent US20140343000A1 (priority 2011, published 2014).
